Columns and labels:
bamyardgrass = assay: Test B flood test barnyardgrass; format: in vivo, Echinochloa crus-galli; conditions: for Plant response rating, Barnyardgrass (0 to 10 scale, 0 is no effect, 10 is complete control): Rate 62 g/ha, Pre-emergence; for Plant response rating, Barnyardgrass (0 to 10 scale, 0 is no effect, 10 is complete control) / Barnyardgrass plant response rating (0 to 10 scale, 0 is no effect, 10 is complete control): flood test species, visual evaluation after twelve to sixteen days; for Barnyardgrass plant response rating (0 to 10 scale, 0 is no effect, 10 is complete control): Rate 125 g/ha, under heading Pre-emergence
How it was run: (§1)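 Flood test on plants grown to the 2-leaf stage; treated plants kept in greenhouse twelve to sixteen days, then visually rated against controls on a 0 (no effect) to 10 (complete control) scale.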

duck salad = assay: Test B flood test duck salad; format: in vivo, Heteranthera limosa; conditions: for Plant response rating, Ducksalad (0 to 10 scale, 0 is no effect, 10 is complete control): Rate 62 g/ha, Pre-emergence; for Plant response rating, Ducksalad (0 to 10 scale, 0 is no effect, 10 is complete control) / Ducksalad plant response rating (0 to 10 scale, 0 is no effect, 10 is complete control): flood test species, visual evaluation after twelve to sixteen days; for Ducksalad plant response rating (0 to 10 scale, 0 is no effect, 10 is complete control): Rate 125 g/ha, under heading Pre-emergence
How it was run: as §1

sugar beet = assay: Test B pre/postemergence sugar beet; format: in vivo, Beta vulgaris
How it was run: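 Test chemicals in a non-phytotoxic solvent mixture with surfactant were sprayed preemergence onto planted seeds and postemergence onto plants 2 to 18 cm tall (1- to 4-leaf stage). After twelve to sixteen days in a greenhouse, injury was visually rated against untreated controls from 0 (no effect) to 10 (complete control).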

rice = assay: Test B flood test rice; format: in vivo, Oryza sativa; conditions: for Plant response rating, Rice (0 to 10 scale, 0 is no effect, 10 is complete control): Rate 62 g/ha, Pre-emergence; for Plant response rating, Rice (0 to 10 scale, 0 is no effect, 10 is complete control) / Rice plant response rating (0 to 10 scale, 0 is no effect, 10 is complete control): flood test species, visual evaluation after twelve to sixteen days; for Rice plant response rating (0 to 10 scale, 0 is no effect, 10 is complete control): Rate 125 g/ha, under heading Pre-emergence
How it was run: as §1

smallflower flatsedge = assay: Test B flood test smallflower flatsedge; format: in vivo, Cyperus difformis; conditions: for Plant response rating, S. Flatsedge (0 to 10 scale, 0 is no effect, 10 is complete control): Rate 62 g/ha, Pre-emergence; for Plant response rating, S. Flatsedge (0 to 10 scale, 0 is no effect, 10 is complete control) / S. Flatsedge plant response rating (0 to 10 scale, 0 is no effect, 10 is complete control): flood test species, visual evaluation after twelve to sixteen days; for S. Flatsedge plant response rating (0 to 10 scale, 0 is no effect, 10 is complete control): Rate 125 g/ha, under heading Pre-emergence
How it was run: as §1

[1] = Rate 250 g/ha, Pre-emergence (flood test species), scale 0 to 10, 0 is no effect, 10 is complete control
[2] = Rate 500 g/ha, Pre-emergence section of Table B, 0 to 10 scale (0 no effect, 10 complete control)
[3] = Postemergence, Rate 62 g/ha, scale 0 to 10, 0 is no effect, 10 is complete control
[4] = Postemergence, Rate 125 g/ha, scale of 0 to 10 where 0 is no effect and 10 is complete control
[5] = Postemergence, Rate 250 g/ha, scale of 0 to 10, 0 is no effect, 10 is complete control
[6] = Preemergence, Rate 62 g/ha, scale 0 to 10 (0 no effect, 10 complete control)
[7] = Preemergence, Rate 125 g/ha, scale of 0 to 10 where 0 is no effect and 10 is complete control
[8] = Preemergence, Rate 250 g/ha, scale 0 to 10 (0 no effect, 10 complete control)
[9] = Preemergence, Rate 500 g/ha, scale of 0 to 10 where 0 is no effect and 10 is complete control
[10] = Preemergence, Rate 62 g/ha, scale of 0 to 10 where 0 is no effect and 10 is complete control
[11] = Rate 500 g/ha, Postemergence, scale 0 to 10, 0 is no effect, 10 is complete control

| Structure (SMILES) | Plant response rating, Barnyardgrass (0 to 10 scale, 0 is no effect, 10 is complete control) (bamyardgrass) | Barnyardgrass plant response rating (0 to 10 scale, 0 is no effect, 10 is complete control) (bamyardgrass) | Barnyardgrass plant response rating (bamyardgrass; [1]) | Barnyardgrass plant response rating (bamyardgrass; [2]) | Plant response rating, Ducksalad (0 to 10 scale, 0 is no effect, 10 is complete control) (duck salad) | Ducksalad plant response rating (0 to 10 scale, 0 is no effect, 10 is complete control) (duck salad) | Ducksalad plant response rating (duck salad; [1]) | Ducksalad plant response rating (duck salad; [2]) | Plant response rating, Sugarbeets (sugar beet; [3]) | Sugarbeets plant response rating (sugar beet; [7]) | Plant response rating, Sugarbeets (sugar beet; [8]) | Plant response rating, Sugarbeets (sugar beet; [9]) | Plant response rating, Rice (0 to 10 scale, 0 is no effect, 10 is complete control) (rice) | Rice plant response rating (0 to 10 scale, 0 is no effect, 10 is complete control) (rice) | Rice plant response rating (rice; [1]) | Rice plant response rating (rice; [2]) | Plant response rating, S. Flatsedge (0 to 10 scale, 0 is no effect, 10 is complete control) (smallflower flatsedge) | S. Flatsedge plant response rating (0 to 10 scale, 0 is no effect, 10 is complete control) (smallflower flatsedge) | S. Flatsedge plant response rating (smallflower flatsedge; [1]) | S. Flatsedge plant response rating (smallflower flatsedge; [2]) | further results |
| --- | --- | --- | --- | --- | --- | --- | --- | --- | --- | --- | --- | --- | --- | --- | --- | --- | --- | --- | --- | --- | --- |
| CC(C)N(C(=O)n1oc(=O)n(CSC#N)c1=O)c1ccc(F)cc1 [Compound 618] | 0 | 0 | 0 | 0 | 0 | 0 | 0 | 0 | 0 | 0 | 0 | 0 | 0 | 0 | 0 | 0 | 0 | 0 | 0 | 0 | Plant response rating, Sugarbeets (sugar beet; [4]): 0; Sugarbeets plant response rating (sugar beet; [5]): 0; Sugarbeets plant response rating (sugar beet; [6]): 0 |
| CC(C)N(C(=O)n1oc(=O)n(CNC(=O)c2ccccc2)c1=O)c1ccccc1 [Compound 620] | 0 | 0 | 0 | 0 | 0 | 0 | 0 | 0 | 0 | 0 | 0 | 0 | 0 | 0 | 0 | 0 | 0 | 0 | 0 | 0 | Plant response rating, Sugarbeets (sugar beet; [4]): 0; Sugarbeets plant response rating (sugar beet; [5]): 0; Sugarbeets plant response rating (sugar beet; [6]): 0 |
| COCCn1c(=O)on(C(=O)N(c2ccc(F)cc2)C(C)C)c1=O [Compound 627] | 0 | 0 | 0 | 8 | 0 | 0 | 0 | 1 | 0 | 4 | 8 | 9 | 0 | 0 | 0 | 0 | 0 | 0 | 0 | 3 | Plant response rating, Sugarbeets (sugar beet; [4]): 0; Sugarbeets plant response rating (sugar beet; [5]): 0; Sugarbeets plant response rating (sugar beet; [6]): 5 |
| C=C(Cl)Cn1c(=O)on(C(=O)N(c2ccc(F)cc2F)C(C)C)c1=O [Compound 634] | 0 | 0 | 0 | 0 | 0 | 0 | 0 | 0 | 0 | 0 | 5 | 6 | 0 | 0 | 0 | 0 | 0 | 0 | 0 | 0 | Plant response rating, Sugarbeets (sugar beet; [4]): 0; Sugarbeets plant response rating (sugar beet; [5]): 0; Sugarbeets plant response rating (sugar beet; [10]): 0 |
| C=C(Cc1ccccc1)Cn1c(=O)on(C(=O)N(c2ccccc2)C(C)C)c1=O [Compound 650] | 0 | 0 | 0 | 0 | 0 | 0 | 0 | 0 | 0 | 0 | 0 | 4 | 0 | 0 | 0 | 0 | 0 | 0 | 0 | 0 | Sugarbeets plant response rating (sugar beet; [4]): 0; Sugarbeets plant response rating (sugar beet; [10]): 0; Sugarbeets plant response rating (sugar beet; [11]): 0 |
| CC(C)N(C(=O)n1oc(=O)n(CC2CCCCO2)c1=O)c1ccccc1 (stereo not drawn) [Compound 659] | 0 | 2 | 2 | 7 | 0 | 0 | 0 | 0 | 0 | 0 | 0 | 5 | 0 | 0 | 0 | 0 | 0 | 0 | 0 | 5 | Sugarbeets plant response rating (sugar beet; [4]): 0; Sugarbeets plant response rating (sugar beet; [10]): 0; Sugarbeets plant response rating (sugar beet; [11]): 4 |

Source: patent US6737383B1, “Herbicidal oxadiazolidines” (priority 1999, dated 2004)
